Data published in patent US20220283500A1, “CHEMICALLY AMPLIFIED POSITIVE-TYPE PHOTOSENSITIVE RESIN COMPOSITION, PHOTOSENSITIVE DRY FILM, PRODUCTION METHOD FOR PHOTOSENSITIVE DRY FILM, PRODUCTION METHOD FOR PATTERNED RESIST FILM, COMPOUND, PHOTO-ACID GENERATOR, AND PRODUCTION METHOD FOR N-ORGANOSULFONYLOXY COMPOUND” (TOKYO OHKA KOGYO CO., LTD., priority 2019, published 2022).

Experiment: Evaluation of solubility of acid generator in PGMEA
Details: maximal concentration dissolved in propylene glycol monomethyl ether acetate (PGMEA)

Row | Structure (SMILES) | Solvent solubility of acid generator
1 | CCCCc1ccc2c3c(cccc13)C(=O)N(OS(=O)(=O)C(F)(F)C(=O)OC)C2=O [PAG-1] | > 20% by mass
2 | CCCCc1ccc2c3c(cccc13)C(=O)N(OS(=O)(=O)C(F)(F)C(=O)OCCC1CCCCC1)C2=O [PAG-2] | > 20% by mass
3 | O=C1c2cccc3cccc(c23)C(=O)N1OS(=O)(=O)C(F)(F)F [PAG-5, reference compound] | < 1% by mass
4 | CCCCc1ccc2c3c(cccc13)C(=O)N(OS(=O)(=O)C(F)(F)F)C2=O [PAG-6, reference compound] | > 20% by mass
5 | COC(=O)C(F)(F)S(=O)(=O)ON1C(=O)c2cccc3cccc(c23)C1=O [PAG-7] | 5% by mass
6 | O=C1c2cccc3cccc(c23)C(=O)N1OS(=O)(=O)C(F)(F)C(=O)OC1C2CC3OS(=O)(=O)C1C3C2 (stereo not drawn) [PAG-8] | < 1% by mass
7 | CCCCC(CC)COC(=O)CSc1ccc2c3c(cccc13)C(=O)N(OS(=O)(=O)C(F)(F)C(=O)OC)C2=O (stereo not drawn) [PAG-9] | > 20% by mass
8 | CCCCC(CC)COC(=O)CSc1ccc2c3c(cccc13)C(=O)N(OS(=O)(=O)C(F)(F)C(=O)OCCC1CCCCC1)C2=O (stereo not drawn) [PAG-10] | > 20% by mass
9 | CCCCC(CC)COC(=O)CSc1ccc2c3c(cccc13)C(=O)N(OS(=O)(=O)C(F)(F)C(=O)OCCC13CC4CC(CC(C4)C1)C3)C2=O (stereo not drawn) [PAG-11] | > 20% by mass
10 | CCCCC(CC)COC(=O)CSc1ccc2c3c(cccc13)C(=O)N(OS(=O)(=O)C(F)(F)C(=O)OC1C3CC4OS(=O)(=O)C1C4C3)C2=O (stereo not drawn) [PAG-12] | > 20% by mass
11 | CCCCC(Oc1cc2c3c(cccc3c1)C(=O)N(OS(=O)(=O)C(F)(F)C(=O)OC)C2=O)C(=O)O (stereo not drawn) [PAG-13] | 10% by mass
12 | CCCCC(Oc1cc2c3c(cccc3c1)C(=O)N(OS(=O)(=O)C(F)(F)C(=O)OCCC1CCCCC1)C2=O)C(=O)O (stereo not drawn) [PAG-14] | 10% by mass
13 | CCCCC(Oc1cc2c3c(cccc3c1)C(=O)N(OS(=O)(=O)C(F)(F)C(=O)OCCC13CC4CC(CC(C4)C1)C3)C2=O)C(=O)O (stereo not drawn) [PAG-15] | 10% by mass
14 | CCCCC(Oc1cc2c3c(cccc3c1)C(=O)N(OS(=O)(=O)C(F)(F)C(=O)OC1C3CC4OS(=O)(=O)C1C4C3)C2=O)C(=O)O (stereo not drawn) [PAG-16] | 10% by mass
15 | CCCCC(Oc1cc2c3c(cccc3c1)C(=O)N(OS(=O)(=O)C(F)(F)C(=O)OC)C2=O)C(=O)OC(C)(C)C (stereo not drawn) [PAG-17] | 15% by mass
16 | CCCCC(Oc1cc2c3c(cccc3c1)C(=O)N(OS(=O)(=O)C(F)(F)C(=O)OCCC1CCCCC1)C2=O)C(=O)OC(C)(C)C (stereo not drawn) [PAG-18] | 15% by mass
17 | CCCCC(Oc1cc2c3c(cccc3c1)C(=O)N(OS(=O)(=O)C(F)(F)C(=O)OCCC13CC4CC(CC(C4)C1)C3)C2=O)C(=O)OC(C)(C)C (stereo not drawn) [PAG-19] | 15% by mass
18 | COC(=O)C(F)(F)S(=O)(=O)ON1C(=O)c2cc(C(C)C)cc3ccc(C(C)C)c(c23)C1=O [PAG-29] | 10% by mass
19 | CC(C)c1cc2c3c(c(C(C)C)ccc3c1)C(=O)N(OS(=O)(=O)C(F)(F)C(=O)OCCC1CCCCC1)C2=O [PAG-30] | > 20% by mass
20 | CC(C)c1cc2c3c(c(C(C)C)ccc3c1)C(=O)N(OS(=O)(=O)C(F)(F)C(=O)OCCC13CC4CC(CC(C4)C1)C3)C2=O [PAG-31] | > 20% by mass
21 | CC(C)c1cc2c3c(c(C(C)C)ccc3c1)C(=O)N(OS(=O)(=O)C(F)(F)C(=O)OC1C3CC4OS(=O)(=O)C1C4C3)C2=O (stereo not drawn) [PAG-32] | 10% by mass
